Test results as given in patent US20060173080A1, “Methods of modulating TNF using bupropion” (The Regents of the University of California, priority 2002, published 2006).
“Also recorded” adds a separate entry of the source. Counter-ions that a name gives are not always drawn.

What was measured:
[1] = test system: TNF; experiment: Serum TNF by ELISA in LPS-challenged mice; type: in vivo, BALB/c mice; conditions: bupropion 100 mg/kg i.p. 1 h before 600 μg LPS i.p., serum 90 min after LPS
Protocol: (§1) To study the immunomodulatory effects of bupropion we used a mouse model in which TNF production is induced by stimulation with lipopolysaccharide (LPS) (Bozza et al, The PACAP-type I receptor agonist maxadilan from sand fly saliva protects mice against lethal endotoxemia by a mechanism partially dependent on IL-10, Eur. J. Immunol. 28, 3120-3127, 1998). BALB/c mice were injected intraperitoneally (i.p.) with bupropion or placebo 1 h prior to i.p. injection of LPS (600 ug/mouse).
Male, 6 weeks old BALB/c mice were used in LPS-induced shock experiments. All mice were raised and maintained at the animal facilities at the Goncalo Moniz Research Center-FIOCRUZ, and provided with rodent diet and water ad libitum. Animal numbers in experimental groups were the minimum necessary to permit statistical analysis. All animals were sacrificed under anaesthesia.
Groups of mice were injected intraperitoneally (i.p.) with a dose of 600 μg of LPS (from Escherichia coli serotype 0111 :B4, Sigma, St. Louis, Mo., USA) in saline (previously determined as LD 100) 1 h after injection of placebo or bupropion. In some experiments, groups of mice received i.p. injection of propranolol (1 mg/Kg), SCH23390 (25 μg/kg) and sulpiride (25 mg/Kg) 1 h prior to injection of bupropion. […]. To determine serum TNF, IL-1 beta and IL-10 levels, mice were sacrificed 90 min after injection of LPS and bled by axilar vein puncture. Levels of IFN-gamma and nitric oxide were assayed using sera of mice sacrificed 4 h after LPS injection. Platelet and leukocyte cell counts were performed using blood collected with EDTA after 4 h of LPS challenge, using an automated cell counter (ADVIA 60, Bayer).
(§2) TNF, IL-1beta, IFN-gamma and IL-10 concentrations in serum samples or in supernatants from macrophage cultures were determined by enzyme-linked immunosorbent assay (ELISA) using antibody pairs and recombinant cytokines from R&D systems (Minneapolis, Minn., USA), according to the manufacturer's instructions. After incubation with streptoavidin-peroxidase conjugate (Sigma), the reaction was developed using 3,3′, 5,5′-tetramethylbenzidine (TMB) peroxidase substrate and read at 450 nm. The serum concentration of nitrite (NO2−) was determined by the Griess reaction, as an indicator of nitric oxide production (Green et al., Analysis of nitrate nitrite and [^15N] nitrite in biological fluids. Anal. Biochem 126, 131-138, 1982). […] The absorbance of the reaction product at 540 nm was measured using an ELISA reader. The NO2^− concentration was determined by using sodium nitrite as standard. Data were analyzed using Student's t test, one-way ANOVA or Newman-Keuls multiple comparison test, using Graph Pad Prism 3.0 software. […]

[2] = test system: nitric oxide; experiment: Serum nitrite (Griess reaction) as indicator of nitric oxide production in LPS-challenged mice; type: in vivo, BALB/c mice; conditions: bupropion i.p. 1 h before 600 μg LPS
Protocol: as §1
Male, 6 weeks old BALB/c mice were used in LPS-induced shock experiments. […]
as §2, with “reader.” for “reader. The NO2^− concentration was determined by using sodium nitrite as standard. Data were analyzed using Student's t test, one-way ANOVA or Newman-Keuls multiple comparison test, using Graph Pad Prism 3.0 software.”

[3] = test system: TNF; conditions: Altschuler and Kast 2003; cited from earlier work
[4] = test system: major depression; experiment: Course of major depression in the case patients on bupropion; type: in vivo, human; conditions: case patients on bupropion 150 mg BID or TID; hydrochloride
Protocol: After careful review of treatment options, they were started on bupropion (fluoxetine was stopped) with up-titration to 150 mg twice a day. Their abdominal complaints eased over the next months, and the major depression remitted. The baseline dysthymia remained. To better treat the dysthymia, bupropion was raised to 150 mg three times daily with a further lowering of their CDAI. The mesalamine was tapered off. Their CDAI is currently approximately zero. They have one well-formed bowel movement daily and has been without abdominal symptoms or encopresis for 19 months now. They have had no CD flares since starting bupropion. Twice in the last year, they stopped bupropion on their own accord because they felt completely well and felt they didn't need bupropion anymore. […] A person with NYSHA Class I CHF who started on bupropion for major depression. Their TNF before bupropion was 347 pg/ml and 5 pg/ml after two months on bupropion 150 mg twice a day (BID). […] In addition, a person with a history of two myocardial infarctions and NYSHA Class II CHF, who started on bupropion for major depression and desire to stop a 1.5 container/day chewing tobacco habit. Their TNF before starting bupropion was 433 pg/ml, and […] and then four weeks on bupropion 150 mg three times a day (TID). They subsequently stopped using tobacco and their depression is in remission.

[5] = test system: CD patients; conditions: Kast and Altschuler 2001; cited from earlier work
[6] = test system: TNF-alpha; experiment: TNF level in patients with congestive heart failure before and on bupropion; type: in vivo, human; conditions: for TNF: NYSHA Class I CHF
Protocol: A person with NYSHA Class I CHF who started on bupropion for major depression. Their TNF before bupropion was 347 pg/ml and 5 pg/ml after two months on bupropion 150 mg twice a day (BID). […] In addition, a person with a history of two myocardial infarctions and NYSHA Class II CHF, who started on bupropion for major depression and desire to stop a 1.5 container/day chewing tobacco habit. Their TNF before starting bupropion was 433 pg/ml, and […] and then four weeks on bupropion 150 mg three times a day (TID). They subsequently stopped using tobacco and their depression is in remission. Finally, a person with NYSHA Class I CHF-TNF was 303 pg/ml before bupropion was started for depression and 7 pg/ml on 150 mg TID.

[7] = test system: IFN-gamma; experiment: Serum IFN-gamma by ELISA in LPS-challenged mice; type: in vivo, BALB/c mice; conditions: bupropion 100 mg/kg i.p. 1 h before 600 μg LPS i.p., serum 4 h after LPS
Protocol: as §1
(§3) Male, 6 weeks old BALB/c mice were used in LPS-induced shock experiments. All mice were raised and maintained at the animal facilities at the Goncalo Moniz Research Center-FIOCRUZ, and provided with rodent diet and water ad libitum. Animal numbers in experimental groups were the minimum necessary to permit statistical analysis. All animals were sacrificed under anaesthesia. […]
as §2

[8] = test system: IL-1beta; experiment: Serum IL-1beta by ELISA in LPS-challenged mice; type: in vivo, BALB/c mice; conditions: bupropion 100 mg/kg i.p. 1 h before 600 μg LPS i.p., serum 90 min after LPS
Protocol: as §1, §3, §2

[9] = listed as bupropion hydrochloride
[10] = listed as Bupropion, hydrochloride

## CC(NC(C)(C)C)C(=O)c1cccc(Cl)c1 (racemic) [bupropion, (.±.)-1-(3-chlorophenyl)-2-[(1,1-dimethylethyl)amino]-1-propanone hydrochloride]
[1]; [9]
  serum TNF level compared with placebo: decrease
[1]; hydrochloride
  serum TNF level compared with placebo: lowers; also recorded: significantly reduced
[1]; [10]
  serum TNF level compared with placebo: significantly decreased
[1]; listed as buproprion, hydrochloride
  serum TNF level compared with placebo: decreased
[2]
  nitric oxide level compared with placebo: decreased with a trend toward significance
[2]; serum 4 h after LPS
  production of nitric oxide, reduction compared to placebo treated mice: about four-fold
[3]
  circulating TNF levels: lowers
[4]
  depression outcome: partially controlled; also recorded: in remission; also recorded: remitted
[5]
  clinical remission of CD (published cases): clinical remission
[6]; person two on bupropion
  maintenance of low TNF: maintained for more than a year
[6]; person two, on bupropion 150 mg TID, 303 pg/ml before
  TNF: 7 pg/mL
[6]; person, after two months on bupropion 150 mg BID, 347 pg/ml before
  TNF: 5 pg/mL
[6]; three patients with CHF
  change of TNF-alpha on bupropion: dropped profoundly
[7]; [9]
  serum IFN-gamma level compared with placebo: decrease
[7]; hydrochloride
  serum IFN-gamma level compared with placebo: significantly reduced
[7]; [10]
  serum IFN-gamma level compared with placebo: significantly decreased
[8]; [9]
  serum IL-1beta level compared with placebo: decrease
[8]; hydrochloride
  serum IL-1beta level compared with placebo: significantly reduced
[8]; [10]
  serum IL-1beta level compared with placebo: significantly decreased
